# Results published in article PMC10141580, “Cyclic Dichalcogenides Extend the Reach of Bioreductive Prodrugs to Harness Thiol/Disulfide Oxidoreductases: Applications to seco-Duocarmycins Targeting the Thioredoxin System” (ACS Central Science, 2023).
# Read-outs that look alike come from different tables or passages of the source.
# System: NCI-60 standardized human tumor cell line panel
# Assay: cells
# Type: cell-based
# [1] = cell line A549/ATCC (LC:A549/ATCC), TMI sheet
# [2] = cell line BT-549 (BR:BT-549), TMI sheet
# [3] = cell line CCRF-CEM (LE:CCRF-CEM), TMI sheet
# [4] = cell line COLO 205 (CO:COLO 205), TMI sheet
# [5] = cell line EKVX (LC:EKVX), TMI sheet
# [6] = cell line HCC-2998 (CO:HCC-2998), TMI sheet
# [7] = cell line HCT-15 (CO:HCT-15), TMI sheet
# [8] = cell line HCT-116 (CO:HCT-116), TMI sheet
# [9] = cell line HL-60(TB) (LE:HL-60(TB)), TMI sheet
# [10] = cell line HOP-62 (LC:HOP-62), TMI sheet
# [11] = cell line HOP-92 (LC:HOP-92), TMI sheet
# [12] = cell line HT29 (CO:HT29), TMI sheet
# [13] = cell line K-562 (LE:K-562), TMI sheet
# [14] = cell line KM12 (CO:KM12), TMI sheet
# [15] = cell line LOX IMVI (ME:LOX IMVI), TMI sheet
# [16] = cell line M14 (ME:M14), TMI sheet
# [17] = cell line MALME-3M (ME:MALME-3M), TMI sheet
# [18] = cell line MCF7 (BR:MCF7), TMI sheet
# [19] = cell line MDA-MB-435 (ME:MDA-MB-435), TMI sheet
# [20] = cell line MOLT-4 (LE:MOLT-4), TMI sheet
# [21] = cell line NCI-H23 (LC:NCI-H23), TMI sheet
# [22] = cell line NCI-H226 (LC:NCI-H226), TMI sheet
# [23] = cell line RPMI-8226 (LE:RPMI-8226), TMI sheet
# [24] = cell line SF-268 (CNS:SF-268), TMI sheet
# [25] = cell line SF-295 (CNS:SF-295), TMI sheet
# [26] = cell line SF-539 (CNS:SF-539), TMI sheet
# [27] = cell line SK-MEL-5 (ME:SK-MEL-5), TMI sheet
# [28] = cell line SK-MEL-28 (ME:SK-MEL-28), TMI sheet
# [29] = cell line SNB-19 (CNS:SNB-19), TMI sheet
# [30] = cell line SR (LE:SR), TMI sheet
# [31] = cell line SW-620 (CO:SW-620), TMI sheet
# [32] = cell line T-47D (BR:T-47D), TMI sheet
# [33] = cell line U251 (CNS:U251), TMI sheet
# [34] = cell line UACC-62 (ME:UACC-62), TMI sheet
# [35] = cell line UACC-257 (ME:UACC-257), TMI sheet
structure (smiles),measurement,setting,value
COc1cc2cc(C(=O)N3C[C@@H](CCl)c4c3cc(OC(=O)N(CCC(=O)N3CCN(C)CC3)[C@H]3CCSSC3)c3ccccc43)[nH]c2c(OC)c1OC [P-SS60-CBI-TMI],GI50,"TK-10, read-out: GI50",3400 nM
same,GI50,"U251, read-out: GI50",160 nM
same,GI50,"UACC-62, read-out: GI50",270 nM
same,GI50,"UACC-257, read-out: GI50",630 nM
same,NCI-60 screening: Log(GI50),[1],-6.82
same,NCI-60 screening: Log(RedIndex),[1],1.12
same,GI50,"cell line A549/ATCC (LC:A549/ATCC), TMI sheet, read-out: NCI-60 screening: Raw GI50",150 nM
same,NCI-60 screening: Log(GI50),[2],-6.64
same,NCI-60 screening: Log(RedIndex),[2],0.84
same,GI50,"cell line BT-549 (BR:BT-549), TMI sheet, read-out: NCI-60 screening: Raw GI50",230 nM
same,NCI-60 screening: Log(GI50),[3],-6.66
same,NCI-60 screening: Log(RedIndex),[3],0.66
same,GI50,"cell line CCRF-CEM (LE:CCRF-CEM), TMI sheet, read-out: NCI-60 screening: Raw GI50",220 nM
same,NCI-60 screening: Log(GI50),[4],-6.47
same,NCI-60 screening: Log(RedIndex),[4],0.6
same,NCI-60 screening: Log(GI50),[5],-6.5
same,NCI-60 screening: Log(RedIndex),[5],0.79
same,NCI-60 screening: Log(GI50),[6],-6.8
same,NCI-60 screening: Log(RedIndex),[6],0.98
same,GI50,"cell line HCC-2998 (CO:HCC-2998), TMI sheet, read-out: NCI-60 screening: Raw GI50",160 nM
same,NCI-60 screening: Log(GI50),[7],-6.59
same,NCI-60 screening: Log(RedIndex),[7],0.82
same,GI50,"cell line HCT-15 (CO:HCT-15), TMI sheet, read-out: NCI-60 screening: Raw GI50",260 nM
same,NCI-60 screening: Log(GI50),[8],-6.8
same,NCI-60 screening: Log(RedIndex),[8],0.98
same,GI50,"cell line HCT-116 (CO:HCT-116), TMI sheet, read-out: NCI-60 screening: Raw GI50",160 nM
same,NCI-60 screening: Log(GI50),[9],-6.92
same,NCI-60 screening: Log(RedIndex),[9],0.8
same,NCI-60 screening: Log(GI50),[10],-6.96
same,NCI-60 screening: Log(RedIndex),[10],0.73
same,NCI-60 screening: Log(GI50),[11],-6.46
same,NCI-60 screening: Log(RedIndex),[11],0.86
same,NCI-60 screening: Log(GI50),[12],-6.57
same,NCI-60 screening: Log(RedIndex),[12],0.75
same,GI50,"cell line HT29 (CO:HT29), TMI sheet, read-out: NCI-60 screening: Raw GI50",270 nM
same,NCI-60 screening: Log(GI50),[13],-6.79
same,NCI-60 screening: Log(RedIndex),[13],0.62
same,GI50,"cell line K-562 (LE:K-562), TMI sheet, read-out: NCI-60 screening: Raw GI50",160 nM
same,NCI-60 screening: Log(GI50),[14],-6.57
same,NCI-60 screening: Log(RedIndex),[14],0.89
same,GI50,"cell line KM12 (CO:KM12), TMI sheet, read-out: NCI-60 screening: Raw GI50",270 nM
same,NCI-60 screening: Log(GI50),[15],-6.68
same,NCI-60 screening: Log(RedIndex),[15],0.72
same,GI50,"cell line LOX IMVI (ME:LOX IMVI), TMI sheet, read-out: NCI-60 screening: Raw GI50",210 nM
same,NCI-60 screening: Log(GI50),[16],-6.72
same,NCI-60 screening: Log(RedIndex),[16],0.9
same,GI50,"cell line M14 (ME:M14), TMI sheet, read-out: NCI-60 screening: Raw GI50",190 nM
same,NCI-60 screening: Log(GI50),[17],-6.55
same,NCI-60 screening: Log(RedIndex),[17],0.75
same,NCI-60 screening: Log(GI50),[18],-7.45
same,NCI-60 screening: Log(RedIndex),[18],0.95
same,NCI-60 screening: Log(GI50),[19],-6.67
same,NCI-60 screening: Log(RedIndex),[19],0.92
same,GI50,"cell line MDA-MB-435 (ME:MDA-MB-435), TMI sheet, read-out: NCI-60 screening: Raw GI50",210 nM
same,NCI-60 screening: Log(GI50),[20],-7.05
same,NCI-60 screening: Log(RedIndex),[20],0.82
same,NCI-60 screening: Log(GI50),[21],-7.26
same,NCI-60 screening: Log(RedIndex),[21],0.93
same,NCI-60 screening: Log(GI50),[22],-6.36
same,NCI-60 screening: Log(RedIndex),[22],0.52
same,NCI-60 screening: Log(GI50),[23],-6.65
same,NCI-60 screening: Log(RedIndex),[23],0.82
same,GI50,"cell line RPMI-8226 (LE:RPMI-8226), TMI sheet, read-out: NCI-60 screening: Raw GI50",220 nM
same,NCI-60 screening: Log(GI50),[24],-6.73
same,NCI-60 screening: Log(RedIndex),[24],0.92
same,GI50,"cell line SF-268 (CNS:SF-268), TMI sheet, read-out: NCI-60 screening: Raw GI50",190 nM
same,NCI-60 screening: Log(GI50),[25],-6.84
same,NCI-60 screening: Log(RedIndex),[25],1.03
same,NCI-60 screening: Log(GI50),[26],-6.78
same,NCI-60 screening: Log(RedIndex),[26],0.89
same,GI50,"cell line SF-539 (CNS:SF-539), TMI sheet, read-out: NCI-60 screening: Raw GI50",170 nM
same,NCI-60 screening: Log(GI50),[27],-6.78
same,NCI-60 screening: Log(RedIndex),[27],0.99
same,GI50,"cell line SK-MEL-5 (ME:SK-MEL-5), TMI sheet, read-out: NCI-60 screening: Raw GI50",170 nM
same,NCI-60 screening: Log(GI50),[28],-6.53
same,NCI-60 screening: Log(RedIndex),[28],1.09
same,GI50,"cell line SK-MEL-28 (ME:SK-MEL-28), TMI sheet, read-out: NCI-60 screening: Raw GI50",290 nM
same,NCI-60 screening: Log(GI50),[29],-6.6
same,NCI-60 screening: Log(RedIndex),[29],0.94
same,GI50,"cell line SNB-19 (CNS:SNB-19), TMI sheet, read-out: NCI-60 screening: Raw GI50",250 nM
same,NCI-60 screening: Log(GI50),[30],-7.47
same,NCI-60 screening: Log(RedIndex),[30],0.91
same,NCI-60 screening: Log(GI50),[31],-6.66
same,NCI-60 screening: Log(RedIndex),[31],0.93
same,GI50,"cell line SW-620 (CO:SW-620), TMI sheet, read-out: NCI-60 screening: Raw GI50",220 nM
same,NCI-60 screening: Log(GI50),[32],-6.16
same,NCI-60 screening: Log(RedIndex),[32],0.44
same,NCI-60 screening: Log(GI50),[33],-6.79
same,NCI-60 screening: Log(RedIndex),[33],0.96
same,GI50,"cell line U251 (CNS:U251), TMI sheet, read-out: NCI-60 screening: Raw GI50",160 nM
same,NCI-60 screening: Log(GI50),[34],-6.57
same,NCI-60 screening: Log(RedIndex),[34],0.75
same,GI50,"cell line UACC-62 (ME:UACC-62), TMI sheet, read-out: NCI-60 screening: Raw GI50",270 nM
same,NCI-60 screening: Log(GI50),[35],-6.2
same,NCI-60 screening: Log(RedIndex),[35],0.5
same,GI50,read-out: NCI-60 screening: Raw GI50,230 nM
